Counter-ions that a name gives are not always drawn.
Assays:
[1] = molecular target: Bcl-2 protein (histag-Bcl-2, UniProtKB P10415) (Homo sapiens (Human), UniProt P10415); assay: Inhibition of Bcl-2 by the fluorescence polarisation technique; assay type: binding; settings: fluorescence polarisation test; method A, or method B where underlined (underlining not visible); read-out: IC50 (nM) Bcl-2 FP
Excerpt: Inhibition of Bcl-2 by the fluorescence polarisation technique

[2] = tested on: RS4;11 leukaemia tumour line; assay: In vitro cytotoxicity, Microculture Tetrazolium Assay (MTT); assay type: cell-based; settings: Homo sapiens; RS4;11 cells, 48 hours exposure
Procedure: The cytotoxicity studies were carried out on the RS4;11 leukaemia tumour line.
The cells are distributed onto microplates and exposed to the test compounds for 48 hours. The cell viability is then quantified by a colorimetric assay, the Microculture Tetrazolium Assay (Cancer Res., 1987, 47, 939-942).

Sequence of Bcl-2 protein (P10415 whole entry): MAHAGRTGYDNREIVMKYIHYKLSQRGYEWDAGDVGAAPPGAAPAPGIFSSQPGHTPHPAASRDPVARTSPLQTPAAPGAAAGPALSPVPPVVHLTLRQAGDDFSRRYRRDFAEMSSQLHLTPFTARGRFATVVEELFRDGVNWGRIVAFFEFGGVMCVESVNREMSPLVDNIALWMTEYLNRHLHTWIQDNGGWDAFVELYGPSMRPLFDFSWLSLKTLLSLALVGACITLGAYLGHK

Row | Compound | IC50 [1] [nM] | IC50 [2] [nM]
1 | CN1CCN(C[C@@H]2Cc3ccccc3CN2C(=O)c2cc3c(cc2-n2cc(C(=O)N(c4ccccc4)c4ccc(O)cc4)c4cc(F)ccc42)OCO3)CC1 [Example 195, 5-Fluoro-N-(4-hydroxyphenyl)-1-{6-[(3S)-3-[(4-methylpiperazin-1-yl)methyl]-1,2,3,4-tetrahydroisoquinoline-2-carbonyl]-2H-1,3-benzodioxol-5-yl}-N-phenyl-1H-indole-3-carboxamide] | 31.1 | 507
2 | CN1CCN(C[C@@H]2Cc3ccccc3CN2C(=O)c2cc3c(cc2-n2cc(C(=O)N(c4ccc(O)cc4)c4ccc(OC(F)(F)F)cc4)c4ccccc42)OCO3)CC1 [Example 51, N-(4-Hydroxyphenyl)-1-(6-{[(3S)-3-[(4-methylpiperazin-1-yl)methyl]-3,4-dihydroisoquinolin-2(1H)-yl]carbonyl}-1,3-benzodioxol-5-yl)-N-[4-(trifluoro-methoxy)phenyl]-1H-indole-3-carboxamide] | 6.9 | 155
3 | COc1cc(-n2cc(C(=O)N(c3ccccc3)c3ccccc3)c3ccccc32)c(C(=O)N2Cc3ccccc3C[C@H]2CN2CCN(C)CC2)cc1O [Example 181, 1-{4-Hydroxy-5-methoxy-2-[(3S)-3-[(4-methylpiperazin-1-yl)methyl]-1,2,3,4-tetrahydroisoquinoline-2-carbonyl]phenyl}-N,N-diphenyl-1H-indole-3-carboxamide dihydrochloride] | 6.9 | 205
4 | Cc1ccc(N(C(=O)c2cc(C)n(-c3cc4c(cc3C(=O)N3Cc5ccccc5C[C@H]3CN3CCN(C)CC3)OCO4)c2)c2ccc(O)cc2)cc1 [Example 96, N-(4-Hydroxyphenyl)-5-methyl-N-(4-methylphenyl)-1-(6-{[(3S)-3-[(4-methylpiperazin-1-yl)methyl]-3,4-dihydroisoquinolin-2(1H)-yl]carbonyl}-1,3-benzodioxol-5-yl)-1H-pyrrole-3-carboxamide] | 3.9 | 157
5 | NC[C@@H]1Cc2ccccc2CN1C(=O)c1ccccc1-n1cc(C(=O)N(c2ccccc2)c2ccc(O)cc2)c2ccccc21 [Example 131, 1-{2-[(3S)-3-(Aminomethyl)-1,2,3,4-tetrahydroisoquinoline-2-carbonyl}phenyl]-N-(4-hydroxyphenyl)-N-phenyl-1H-indole-3-carboxamide] | 18.9 | 469
6 | CN1CCN(C[C@@H]2Cc3ccccc3CN2C(=O)c2ccc(Cl)cc2-n2cc(C(=O)N(c3ccccc3)c3ccc(O)cc3)c3ccccc32)CC1 [Example 159, 1-{5-Chloro-2-[(3S)-3-[(4-methylpiperazin-1-yl)methyl]-1,2,3,4-tetrahydroisoquinoline-2-carbonyl]phenyl}-N-(4-hydroxyphenyl)-N-phenyl-1H-indole-3-carboxamide] | 10.2 | 191
7 | Cc1cc(C(=O)N(c2ccccc2)c2ccc(O)cc2)cn1-c1cc(Cl)ccc1C(=O)N1Cc2ccccc2C[C@H]1CN1CCN(C)CC1 [Example 26, 1-(5-Chloro-2-{[(3S)-3-[(4-methylpiperazin-1-yl)methyl]-3,4-dihydroisoquinolin-2(1H)-yl]carbonyl}phenyl)-N-(4-hydroxyphenyl)-5-methyl-N-phenyl-1H-pyrrole-3-carboxamide] | 7.5 | 171
8 | Cc1cc(C(=O)N(c2ccccc2)c2ccc(O)c(Cl)c2)cn1-c1cc(Cl)ccc1C(=O)N1Cc2ccccc2C[C@H]1CN1CCN(C)CC1 [Example 27, N-(3-Chloro-4-hydroxyphenyl)-1-(5-chloro-2-{[(3S)-3-[(4-methylpiperazin-1-yl)methyl]-3,4-dihydroisoquinolin-2(1H)-yl]carbonyl}phenyl)-5-methyl-N-phenyl-1H-pyrrole-3-carboxamide hydrochloride] | 20.5 | 479
9 | Cc1ccc(N(C(=O)c2cc(C)n(-c3cc(Br)ccc3C(=O)N3Cc4ccccc4C[C@H]3CN3CCN(C)CC3)c2)c2ccc(O)cc2)cc1 [Example 53, 1-(5-Bromo-2-{[(3S)-3-[(4-methylpiperazin-1-yl)methyl]-3,4-dihydroisoquinolin-2(1H)-yl]carbonyl}phenyl)-N-(4-hydroxyphenyl)-5-methyl-N-(4-methylphenyl)-1H-pyrrole-3-carboxamide] | 9 | 207
10 | O=C(c1cn(-c2ccccc2C(=O)N2Cc3ccccc3C[C@H]2CO)c2ccccc12)N(c1ccccc1)c1ccc(O)cc1 [Example 172, 1-{2-[(3S)-3-(Hydroxymethyl)-1,2,3,4-tetrahydroisoquinoline-2-carbonyl]phenyl}-N-(4-hydroxyphenyl)-N-phenyl-1H-indole-3-carboxamide] | 4.2 | 1200
11 | Cc1cc(C(=O)N(c2ccc(O)cc2)c2ccc(Cl)cc2)cn1-c1cc(Cl)ccc1C(=O)N1Cc2ccccc2C[C@H]1CN1CCN(C)CC1 [Example 65, 1-(5-Chloro-2-{[(3S)-3-[(4-methylpiperazin-1-yl)methyl]-3,4-dihydroisoquinolin-2(1H)-yl]carbonyl}phenyl)-N-(4-chlorophenyl)-N-(4-hydroxyphenyl)-5-methyl-1H-pyrrole-3-carboxamide] | 5.1 | 130
12 | Cc1cc(C(=O)N(c2ccccc2)c2ccccc2)cn1-c1ccccc1C(=O)N1Cc2ccccc2C[C@H]1CN [Example 5, 1-(2-{[(3S)-3-(Aminomethyl)-3,4-dihydroisoquinolin-2(1H)-yl]-carbonyl}phenyl)-5-methyl-N,N-diphenyl-1H-pyrrole-3-carboxamide trifluoroacetate] | 213 | 2590
13 | Cc1cc(C(=O)N(c2ccc(O)cc2)c2ccc3[nH]ccc3c2)cn1-c1cc(Cl)cc(Cl)c1C(=O)N1Cc2ccccc2C[C@H]1CN1CCN(C)CC1 [Example 92, 1-(3,5-Dichloro-2-{[(3S)-3-[(4-methylpiperazin-1-yl)methyl]-3,4-dihydroisoquinolin-2(1H)-yl]carbonyl}phenyl)-N-(4-hydroxyphenyl)-N-(1H-indol-5-yl)-5-methyl-1H-pyrrole-3-carboxamide] | 9.6 | 202
14 | NC[C@@H]1Cc2ccccc2CN1C(=O)c1ccccc1-n1nc(C(=O)N(c2ccccc2)c2ccccc2)c2ccccc21 [Example 122, 1-{2-[(3S)-3-(Aminomethyl)-1,2,3,4-tetrahydroisoquinoline-2-carbonyl]phenyl}-N,N-diphenyl-1H-indazole-3-carboxamide] | 53.3 | 2290
15 | CCCCN(CCCC)C(=O)c1cn(-c2ccc(NC(=O)CSc3ccccc3)cc2C(=O)N2Cc3ccccc3C[C@H]2CN2CCN(C)CC2)c2ccccc12 [Example 199, N,N-Dibutyl-1-{2-[(3S)-3-[(4-methylpiperazin-1-yl)methyl]-1,2,3,4-tetrahydroisoquinoline-2-carbonyl]-4-[2-(phenylsulphanyl)acetamido]phenyl}-1H-indole-3-carboxamide] | 57.7 | 2360
16 | CN1CCN(C[C@@H]2Cc3ccccc3CN2C(=O)c2cc3c(cc2-n2cc(C(=O)N(c4ccc(O)cc4)c4ccc(F)cc4)c4ccccc42)OCO3)CC1 [Example 35, N-(4-Fluorophenyl)-N-(4-hydroxyphenyl)-1-(6-{[(3S)-3-[(4-methylpiperazin-1-yl)methyl]-3,4-dihydroisoquinolin-2(1H)-yl]carbonyl}-1,3-benzodioxol-5-yl)-1H-indole-3-carboxamide] | 3.5 | 68.9
17 | CN1CCN(C[C@@H]2Cc3ccccc3CN2C(=O)c2ccc(Cl)cc2-n2cc(C(=O)N(c3ccc(O)cc3)c3ccc(F)cc3)c3ccccc32)CC1 [Example 75, 1-(5-Chloro-2-{[(3S)-3-[(4-methylpiperazin-1-yl)methyl]-3,4-dihydroisoquinolin-2(1H)-yl]carbonyl}phenyl)-N-(4-fluorophenyl)-N-(4-hydroxyphenyl)-1H-indole-3-carboxamide] | 7.1 | 184
18 | CN1CCN(C[C@@H]2Cc3ccccc3CN2C(=O)c2cc3c(cc2-n2cc(C(=O)N(c4ccc(O)cc4)c4ccc(O)cc4)c4ccccc42)OCO3)CC1 [Example 41, N,N-bis(4-Hydroxyphenyl)-1-(6-{[(3S)-3-[(4-methylpiperazin-1-yl)-methyl]-3,4-dihydroisoquinolin-2(1H)-yl]carbonyl}-1,3-benzodioxol-5-yl)-1H-indole-3-carboxamide] | 3.7 | 52.2
19 | CCCCN(C(=O)c1cn(-c2cc(OC)c(O)cc2C(=O)N2Cc3ccccc3C[C@H]2CN2CCN(C)CC2)c2ccccc12)c1ccc(O)cc1 [Example 203, N-Butyl-1-{4-hydroxy-5-methoxy-2-[(3S)-3-[(4-methylpiperazin-1-yl)methyl]-1,2,3,4-tetrahydroisoquinoline-2-carbonyl]phenyl}-N-(4-hydroxyphenyl)-1H-indole-3-carboxamide dihydrochloride] | 10 | 454
20 | CN(C)C[C@@H]1Cc2ccccc2CN1C(=O)c1ccccc1-n1cc(C(=O)N(c2ccccc2)c2ccc(O)cc2)c2ccccc21 [Example 143, 1-{2-[(3S)-3-[(Dimethylamino)methyl]-1,2,3,4-tetrahydroisoquinoline-2-carbonyl]phenyl}-N-(4-hydroxyphenyl)-N-phenyl-1H-indole-3-carboxamide] | 71.5 | 533
21 | COc1cc(-n2cc(C(=O)N(c3ccc(O)cc3)c3ccc(F)cc3)c3ccccc32)c(C(=O)N2Cc3ccccc3C[C@H]2CN2CCN(C)CC2)cc1O [Example 201, N-(4-Fluorophenyl)-1-{4-hydroxy-5-methoxy-2-[(3S)-3-[(4-methylpiperazin-1-yl)methyl]-1,2,3,4-tetrahydroisoquinoline-2-carbonyl]phenyl}-N-(4-hydroxyphenyl)-1H-indole-3-carboxamide dihydrochloride] | 3.1 | 124

— patent US9765056B2, “Indole and pyrrole compounds, a process for their preparation and pharmaceutical compositions containing them” (LES LABORATOIRES SERVIER, priority 2013, dated 2017)
